From US6407080B2, “N-(pyrimidinyl)-aspartic acid analogs as interleukin-1β converting enzyme inhibitors” (Vertex Pharmaceuticals Incorporated, priority 1994, dated 2002)

Assays:
[1] = tested on: release of mature IL-1β from human monocytes; experiment: Human monocyte pulse chase assay, inhibition of release of mature IL-1β (called "in vivo"); type: cell-based; settings: freshly isolated human monocytes activated with fixed S. aureus, 2-3 donors, values approximate
Procedure: In vivo inhibition (IC50) was determined based on Miller et al., “Inhibition of Mature IL-1β Production in Murine Macrophages and a Murine Model of Inflammation By WIN 67694, An Inhibitor of IL-1β Converting Enzyme, J. Immunol., 1994, 154, 1331, as follows:
Human monocytes were isolated from heparinized leukopheresis units obtained through Biological Specialty Corporation (Lansdale, Pa.). Monocytes were purified by Ficoll-Hupaque (Pharmacia Fine Chemicals, Piscataway, N.J.) gradient centrifugation and more than 95% pure monocyte populations obtained by centrifugal elutriation. The assay was performed on duplicate samples of freshly isolated human monocytes, cultured in suspension at 37° C. and rotated gently in conical bottom polypropylene tubes (Sardstedt Inc., Princeton, N.J.). Human monocytes at a concentration of 5×10^6 cells/mL were resuspended in 1 mL of RPMI 1640 (a common tissue buffer from M.A. Bioproducts, Walkersville, Md.) containing 1% fetal calf serum (FCS) (HyClone, Logan, Utah) and 50 μg/mL gentamycin (Gibco, Grand Island, N.Y.). The cells were treated either with a compound of the invention (i.e. test compound) or with a non-inhibitor (control compound, typically 0.03% DMSO) for 15 minutes and then activated with 0.01% fixed Staphylococcus aureus (The Enzyme Center, Malden, Mass.) for 1 hour. The cells were then centrifuged and resuspended in 1 mL of cysteine, methionine-free RPMI media containing 1% dialyzed FCS (Hyclone). The cells were pretreated with a test compound or control compound for 15 minutes after which 0.01% fixed S. aureus plus 100 μCi Tran 35-S label (ICN, Irvine, Calif.) was added and the cells incubated at 37° C. for 1 hour. After incubation, […]. The cells were again pretreated with a test or control compound for 15 minutes and then 0.01% S. aureus for 2 hours. […]
In the monocyte pulse chase assay, each test parameter was run in duplicate. […] When test compounds were evaluated, the percent inhibition of release of mature IL-β was calculated as follows: […]

elastase = molecular target: T1, elastase (Homo sapiens, UniProt P08246); experiment: Elastase inhibition (in vitro); type: biochemical; settings: in vitro assay per Cha; did not inhibit elastase
T1 sequence (P08246 30-267): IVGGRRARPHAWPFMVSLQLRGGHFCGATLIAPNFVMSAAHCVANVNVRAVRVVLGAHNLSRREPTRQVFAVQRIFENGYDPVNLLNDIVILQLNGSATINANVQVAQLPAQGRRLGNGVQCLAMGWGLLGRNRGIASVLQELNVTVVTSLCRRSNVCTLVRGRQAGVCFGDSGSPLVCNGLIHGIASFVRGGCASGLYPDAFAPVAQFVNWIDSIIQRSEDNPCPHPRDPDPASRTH
From the text: It should be noted that the pyrimidine-based trifluoromethyl ketones (FIG. 2) were recently described as inhibitors of the serene protease, elastase. Since ICE is a cysteine protease and it is known in the prior art that trifluoromethyl ketones are rather poor inhibitors of cysteine proteases (See, Imperialia, B. and Ables, R. H., Biochemistly (1986), 2, 3760-7), it is expected that the pyrimidines of FIG. 2 would not be inhibitors of ICE. Also, it is known that ICE requires the aspartic acid side chain (—CH2COOH) at PI. Pyrimidines which inhibit elastase (FIG. 2) contain the valine side chain (—CHMe2).
Compounds of examples 1, 6 and 7 were examined for their ability to inhibit elastase. The in vitro assay was carried out as described by Cha, Biochem. Pharmacol., (1975), 24, 2177-2185.

| IC50 [1] | IC50 (elastase) | Compound |
| --- | --- | --- |
| 0.1 to 10 µM | ≥ 10 µM | O=C(O)C[C@H](NC(=O)Cn1c(-c2ccc(F)cc2)ncc(NC(=O)OCc2ccccc2)c1=O)C(=O)COC(=O)c1c(Cl)cccc1Cl [Example 1] |
| 0.1 to 10 µM | ≥ 10 µM | O=C(O)C[C@H](NC(=O)Cn1c(-c2ccc(F)cc2)ncc(NC(=O)OCc2ccccc2)c1=O)C(=O)COc1cc(C(F)(F)F)nn1-c1ccccc1 [Example 6, N-[2-(5-Benzyloxycarbonylamino-6-oxo-2-(4-fluorophenyl)-1,6-dihydro-1-pyrimidinyl)acetoyl]-L-aspartic Acid 5-(1-phenyl-3-trifluoromethyl)pyrazoloxymethyl Ketone] |
| 0.1 to 10 µM | ≥ 10 µM | CC(C)OC(=O)Nc1cnc(-c2ccccc2)n(CC(=O)N[C@@H](CC(=O)O)C(=O)COc2cc(C(F)(F)F)nn2-c2ccccc2)c1=O [Example 7, N-[2-(5-Isopropyloxycarbonylamino-6-oxo-2-phenyl-1,6-dihydro-1-pyrimidinyl)acetoyl]-L-aspartic Acid 5-(1-phenyl-3-trifluoromethyl)pyrazoloxymethyl Ketone] |
